From paper PMC8778670, “Identification of an Orally Bioavailable, Brain-Penetrant Compound with Selectivity for the Cannabinoid Type 2 Receptor” (Molecules, 2022)
“And” between values parts separate entries of the source, which are not always exact repeats. Identical values can stand only once. Like-named read-outs stand apart in the source and are kept apart here.

Assay: PK evaluation in CD-1 mice (plasma, brain, kidney, liver; i.v. and oral)
Format: in vivo
Conditions: for bioavailability: oral vs intravenous 5 mg/kg
Description: The primary stock solutions of 4k and phenacetin (internal standard, IS) were prepared in methanol at a concentration of 1.0 mg/mL. Working solutions of calibration standards and quality control (QC) samples were prepared by dilution with methanol and stored at −20 °C. A working stock of the IS solution (20 ng/mL) was prepared in methanol and stored at −20 °C.
Chromatography was performed on an Acquity^TM UPLC system (Waters Corp, Milford, MA, USA) with an autosampler temperature at 10 °C. Waters Acquity UPLC® HSS C18 column (3.0 × 50 mm, 1.8 µm particle size) was used for chromatographic separation with linear gradient elution consisting of (A) 90% acetonitrile and (B) 10% 0.2% formic acid in Milli-Q water as mobile phases. The flow rate was set at 0.30 mL/min, and the injection volume was 2 µL.
An Acquity Tandem Quadrupole Mass Detector (Xevo TQ-S; Waters Corp, Milford, MA, USA) in positive electrospray ionization mode was used for mass spectrometric detection. For collision-induced dissociation, argon was used as collision gas. The cone voltage and collision energy were set at 60 V and 34 V for 4k and 46 V and 26 V for the IS, respectively. Quantification was performed using the monitoring of multiple reaction monitoring (MRM) of following transitions: m/z 409.0/220.9 for 4k and m/z 180.0/92.7 for IS. Retention times of 4k and IS were 2.85 and 1.81 min, respectively.
A simple protein precipitation method was followed for extraction of 4k from mice plasma. To an aliquot of 50 μL of plasma or tissue (brain, liver, or kidney) samples, IS solution (5 μL of 20 ng/mL) was added and mixed for 15 s on a cyclomixer (Thermo Scientific, Indianapolis, IN, USA). After precipitation with 200 μL of acetonitrile, the mixture was vortexed for 2 min, followed by centrifugation for 10 min at 14,000 rpm on an accuSpin Micro 17R (Fisher Scientific, Suwanee, GA, USA) at 5 °C. An aliquot of ~150 μL of clear supernatant was transferred into vials and 2 μL was injected onto LC-MS/MS system for analysis.
Male CD-1 mice (N = 48) were obtained from Envigo (St. Louis, MO, USA) and maintained on a 12:12 h reversed dark/light cycle (lights off at 07:00 h) with ad libitum access to food and water. Following a ~4 h fast, animals were randomly assigned to one of two groups. Group I and II animals (n = 24/group, weight range 25–30 g) received compound 4k (5 mg/kg) orally (in the form of a solution, prepared using 10% absolute alcohol, 10% cremophor, and 80% Milli-Q water) or intravenously (i.v., using solution formulation comprising 10% absolute alcohol, 10% cremophor, and 80% normal saline), respectively. At 0.5, 1, 2, 4, 8, and 24 h post administration, animals were euthanized, blood was collected in K2. EDTA-containing polypropylene tubes and, tissues were collected (brain, liver, and kidney). Plasma was harvested by centrifuging the blood using Eppendorf 5430R Centrifuge (Germany) at 5000 rpm for 5 min and stored frozen at −80 °C until analysis.
Brain, liver, and kidney tissues were homogenized in separate 15 mL round-bottom screw-capped vials in phosphate buffered saline (5 volumes of each tissue mass) with a homogenizer (Polytron®) and stored at −80 °C until analysis. Plasma or tissue homogenates (50 μL) were spiked with IS and processed as mentioned in sample preparation section.
Plasma and tissue concentration and time data of compound 4k were analyzed by a non-compartmental method using WinNonlin Version 5.3 (Pharsight Corporation, Mountain View, CA, USA).

[1] = male, CD-1, mouse, intravenous 5 mg/kg, plasma
[2] = male, CD-1, mouse, oral 5 mg/kg, plasma

What does the source list for O=C1c2ccc(Cl)cc2N/C(=N/N=C/c2cc3ccccc3s2)[C@@H]2CCCN12 [Compound 4k]?
AUC0–∞ (intravenous 5 mg/kg, brain): 5685 ng·h/g; t1/2 (intravenous 5 mg/kg, brain, 5 mg/kg): 6.54 h; AUC0–∞ (intravenous 5 mg/kg, kidney): 13272 ng·h/g; AUC0–∞ (intravenous 5 mg/kg, liver): 19991 ng·h/g; t1/2 (intravenous 5 mg/kg, liver, 5 mg/kg): 9.26 h; clearance as share of hepatic blood flow in mice (intravenous 5 mg/kg, plasma): 26%; t1/2 (intravenous 5 mg/kg, plasma, 5 mg/kg): 6.91 h; Kp (male, CD-1, mouse, brain and plasma, intravenous 5 mg/kg, read-out: mean brain to plasma ratio): 3.67; Kp (male, CD-1, mouse, brain and plasma, oral 5 mg/kg, read-out: mean brain to plasma ratio): 4.61; half-life (male, CD-1, mouse, brain, iv, 5 mg/kg, intravenous 5 mg/kg, brain, read-out: t1/2 (converted)): 6.5 h; half-life (male, CD-1, mouse, brain, po, 5 mg/kg, oral 5 mg/kg, brain, read-out: t1/2 (converted)): 22.9 h; Kp (male, CD-1, mouse, kidney and plasma, intravenous 5 mg/kg, read-out: mean kidney to plasma ratio): 14.5; Kp (male, CD-1, mouse, kidney and plasma, oral 5 mg/kg, read-out: mean kidney to plasma ratio): 7.25; half-life (male, CD-1, mouse, kidney, iv, 5 mg/kg, intravenous 5 mg/kg, kidney, read-out: t1/2 (converted)): 10.2 h; half-life (male, CD-1, mouse, kidney, po, 5 mg/kg, oral 5 mg/kg, kidney, read-out: t1/2 (converted)): 16.7 h; Kp (male, CD-1, mouse, liver and plasma, intravenous 5 mg/kg, read-out: mean liver to plasma ratio): 11.5; Kp (male, CD-1, mouse, liver and plasma, oral 5 mg/kg, read-out: mean liver to plasma ratio): 9.89; half-life (male, CD-1, mouse, liver, iv, 5 mg/kg, intravenous 5 mg/kg, liver, read-out: t1/2 (converted)): 9.3 h; half-life (male, CD-1, mouse, liver, kidney, other: oral or intravenous, 5 mg/kg, oral or intravenous route, liver and kidneys, read-out: elimination half-lives in the liver and kidneys): 9.3 to 16.7 h; half-life (male, CD-1, mouse, liver, po, 5 mg/kg, oral 5 mg/kg, liver, read-out: t1/2 (converted)): 13 h; half-life (male, CD-1, mouse, plasma, iv, 5 mg/kg, intravenous 5 mg/kg, plasma, read-out: t1/2 (converted)): 6.9 h; half-life (male, CD-1, mouse, plasma, po, 5 mg/kg, oral 5 mg/kg, plasma, read-out: t1/2 (converted)): 16.4 h; Cmax (male, CD-1, mouse, intravenous 5 mg/kg, brain, read-out: Cmax or C0): 2260 ng/g; Vd (male, CD-1, mouse, intravenous 5 mg/kg, brain, read-out: volume of distribution): 8.82 ± 2.43 L/kg; Cmax (male, CD-1, mouse, intravenous 5 mg/kg, kidney, read-out: Cmax or C0): 4720 ng/g; Vd (male, CD-1, mouse, intravenous 5 mg/kg, kidney, read-out: volume of distribution): 5.63 ± 0.37 L/kg; Cmax (male, CD-1, mouse, intravenous 5 mg/kg, liver, read-out: Cmax or C0): 13500 ng/g; Vd (male, CD-1, mouse, intravenous 5 mg/kg, liver, read-out: volume of distribution): 3.38 ± 0.18 L/kg; AUC(0-inf) [1]: 4020 ng·h/mL; clearance [1]: 23.5 mL/min/kg; C0 (male, CD-1, mouse, intravenous 5 mg/kg, plasma, read-out: Cmax or C0): 4340 ng/mL; Vd (male, CD-1, mouse, intravenous 5 mg/kg, plasma, read-out: Vd): 14.3 L/kg; Tmax (male, CD-1, mouse, oral 5 mg/kg, brain): 1.25 h; Cmax (male, CD-1, mouse, oral 5 mg/kg, brain, read-out: Cmax): 602 ng/g; Tmax (male, CD-1, mouse, oral 5 mg/kg, kidney): 0.75 h; Cmax (male, CD-1, mouse, oral 5 mg/kg, kidney, read-out: Cmax): 795 ng/g; Tmax (male, CD-1, mouse, oral 5 mg/kg, liver): 0.75 h; Cmax (male, CD-1, mouse, oral 5 mg/kg, liver, read-out: Cmax): 1890 ng/g; AUC(0-inf) [2]: 739 ng·h/mL; Tmax [2]: 0.88 h; Cmax (male, CD-1, mouse, oral 5 mg/kg, plasma, read-out: Cmax): 198 ng/mL; bioavailability (male, CD-1, mouse, brain, read-out: F (apparent oral bioavailability)): 42.5 ± 5.75%; bioavailability (male, CD-1, mouse, plasma, read-out: F (oral bioavailability)): 18%; AUC0–∞ (oral 5 mg/kg, brain, 5 mg/kg): 3069 ± 64 ng·h/g and 3069 ng·h/g; AUC0–∞ (oral 5 mg/kg, kidney, 5 mg/kg): 5223 ± 44.75 ng·h/g and 5223 ng·h/g; AUC0–∞ (oral 5 mg/kg, liver, 5 mg/kg): 6423 ± 571 ng·h/g and 6423 ng·h/g
